According to PubChem BioAssay AID1963426 (Molecular Pharmacology Branch, DTP, NCI, 2024):
Values joined by “and” are separate entries in the source; they are usually repeats but may differ in a detail not shown here. Equal entries are not always repeated. Each block holds one molecule with its values, some of them ahead of it.

Test system: 186277-243-T-J2-PDC complex spheroid growth, % test/control
Assay: Anticancer human tumor 186277-243-T-J2-PDC patient-derived colon adenocarcinoma cell line growth inhibition [Asc]
Details: for viability, T/C: stronger effect = lower value
How it was run: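 Concentration series start at each agent's clinical Cmax, or at 10 microM when none is established, and drop in half-log steps; agents are applied alone or together to complex spheroids built with HUVEC and hMSC.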

[1] = curve of first compound, second compound 0.1 µM
[2] = curve of first compound, second compound 0.316 µM
[3] = curve of first compound, second compound 1 µM
[4] = curve of first compound, second compound 3.16 µM
[5] = curve of first compound, second compound 10 µM
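Note: spheroids exposed to agents for 7 days.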
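Throughout, for viability, T/C: 100% = DMSO vehicle control wells.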

Structure (SMILES): NC(=O)C(=Cn1cnc(-c2cc(C(F)(F)F)cc(C(F)(F)F)c2)n1)c1cncnc1 + Cc1c(S(C)(=O)=O)c(-c2cc(F)cc(N3CCN(c4ccc(NS(=O)(=O)c5ccc(NC(CCN6CCC(C(=O)OCCCP(=O)(O)O)CC6)CSc6ccccc6)c(S(=O)(=O)C(F)(F)F)c5)cc4)CC3)c2)c(-c2ccc(Cl)cc2)n1C(C)C
IC50 [1]: 0.108 µM
IC50 [2]: 0.0842 µM
IC50 [3]: 0.0657 µM
IC50 [4]: 0.0568 µM
IC50 [5]: 0.0554 µM
viability, T/C (second compound 0.1 µM, first compound 0.000949 µM): 109%
viability, T/C (second compound 0.1 µM, first compound 0.003 µM): 99.3%
viability, T/C (second compound 0.1 µM, first compound 0.00949 µM): 113%
viability, T/C (second compound 0.1 µM, first compound 0.03 µM): 90.8%
viability, T/C (second compound 0.1 µM, first compound 0.0949 µM): 56.2%
viability, T/C (second compound 0.1 µM, first compound 0.3 µM): 6.16%
viability, T/C (second compound 0.316 µM, first compound 0.000949 µM): 96.3%
viability, T/C (second compound 0.316 µM, first compound 0.003 µM): 99%
viability, T/C (second compound 0.316 µM, first compound 0.00949 µM): 89.5%
viability, T/C (second compound 0.316 µM, first compound 0.03 µM): 94.9%
viability, T/C (second compound 0.316 µM, first compound 0.0949 µM): 44.8%
viability, T/C (second compound 0.316 µM, first compound 0.3 µM): 4.07%
viability, T/C (second compound 1 µM, first compound 0.000949 µM): 96.8%
viability, T/C (second compound 1 µM, first compound 0.003 µM): 101%
viability, T/C (second compound 1 µM, first compound 0.00949 µM): 101%
viability, T/C (second compound 1 µM, first compound 0.03 µM): 98.2%
viability, T/C (second compound 1 µM, first compound 0.0949 µM): 27.4%
viability, T/C (second compound 1 µM, first compound 0.3 µM): 1.75%
viability, T/C (second compound 3.16 µM, first compound 0.000949 µM): 110%
viability, T/C (second compound 3.16 µM, first compound 0.003 µM): 99.4%
viability, T/C (second compound 3.16 µM, first compound 0.00949 µM): 101%
viability, T/C (second compound 3.16 µM, first compound 0.03 µM): 95.8%
viability, T/C (second compound 3.16 µM, first compound 0.0949 µM): 13.2%
viability, T/C (second compound 3.16 µM, first compound 0.3 µM): 0.68%
viability, T/C (second compound 10 µM, first compound 0.000949 µM): 92%
viability, T/C (second compound 10 µM, first compound 0.003 µM): 92.4%
viability, T/C (second compound 10 µM, first compound 0.00949 µM): 92.5%
viability, T/C (second compound 10 µM, first compound 0.03 µM): 91.7%
viability, T/C (second compound 10 µM, first compound 0.0949 µM): 13.4%
viability, T/C (second compound 10 µM, first compound 0.3 µM): 0.55%

Structure (SMILES): NC1CCC(NC2CC2c2ccccc2)CC1 (stereo not drawn) + Cc1c(S(C)(=O)=O)c(-c2cc(F)cc(N3CCN(c4ccc(NS(=O)(=O)c5ccc(NC(CCN6CCC(C(=O)OCCCP(=O)(O)O)CC6)CSc6ccccc6)c(S(=O)(=O)C(F)(F)F)c5)cc4)CC3)c2)c(-c2ccc(Cl)cc2)n1C(C)C
IC50 [1]: > 0.1 µM
IC50 [2]: > 0.1 µM
IC50 [3]: > 0.1 µM
IC50 [4]: > 0.1 µM
IC50 [5]: > 0.1 µM
viability, T/C (second compound 0.1 µM, first compound 0.000316 µM): 102%
viability, T/C (second compound 0.1 µM, first compound 0.001 µM): 102%
viability, T/C (second compound 0.1 µM, first compound 0.00316 µM): 96.9%
viability, T/C (second compound 0.1 µM, first compound 0.01 µM): 94.8%
viability, T/C (second compound 0.1 µM, first compound 0.0316 µM): 94.4%
viability, T/C (second compound 0.1 µM, first compound 0.1 µM): 91.3%
viability, T/C (second compound 0.316 µM, first compound 0.000316 µM): 124%
viability, T/C (second compound 0.316 µM, first compound 0.001 µM): 94.3%
viability, T/C (second compound 0.316 µM, first compound 0.00316 µM): 111%
viability, T/C (second compound 0.316 µM, first compound 0.01 µM): 104%
viability, T/C (second compound 0.316 µM, first compound 0.0316 µM): 89.9%
viability, T/C (second compound 0.316 µM, first compound 0.1 µM): 78.1%
viability, T/C (second compound 1 µM, first compound 0.000316 µM): 99.8%
viability, T/C (second compound 1 µM, first compound 0.001 µM): 103%
viability, T/C (second compound 1 µM, first compound 0.00316 µM): 113%
viability, T/C (second compound 1 µM, first compound 0.01 µM): 93%
viability, T/C (second compound 1 µM, first compound 0.0316 µM): 96.7%
viability, T/C (second compound 1 µM, first compound 0.1 µM): 89%
viability, T/C (second compound 3.16 µM, first compound 0.000316 µM): 103%
viability, T/C (second compound 3.16 µM, first compound 0.001 µM): 104%
viability, T/C (second compound 3.16 µM, first compound 0.00316 µM): 100%
viability, T/C (second compound 3.16 µM, first compound 0.01 µM): 92.1%
viability, T/C (second compound 3.16 µM, first compound 0.0316 µM): 95.6%
viability, T/C (second compound 3.16 µM, first compound 0.1 µM): 91.3%
viability, T/C (second compound 10 µM, first compound 0.000316 µM): 98.3%
viability, T/C (second compound 10 µM, first compound 0.001 µM): 101%
viability, T/C (second compound 10 µM, first compound 0.00316 µM): 97.8%
viability, T/C (second compound 10 µM, first compound 0.01 µM): 92.8%
viability, T/C (second compound 10 µM, first compound 0.0316 µM): 97.8%
viability, T/C (second compound 10 µM, first compound 0.1 µM): 98%

Structure (SMILES): Cc1c(S(C)(=O)=O)c(-c2cc(F)cc(N3CCN(c4ccc(NS(=O)(=O)c5ccc(NC(CCN6CCC(C(=O)OCCCP(=O)(O)O)CC6)CSc6ccccc6)c(S(=O)(=O)C(F)(F)F)c5)cc4)CC3)c2)c(-c2ccc(Cl)cc2)n1C(C)C (stereo not drawn)
IC50 (compound alone, run of 09/27/2022): > 10 µM

Second part, led by results:

IC50 (curve of compound): > 1 µM
Structure (SMILES): CCN1CCN(Cc2ccc(Nc3ncc(F)c(-c4cc(F)c5nc(C)n(C(C)C)c5c4)n3)nc2)CC1
viability, T/C (compound 0.00316 µM): 102% and 90.6% and 91.4%
viability, T/C (compound 0.01 µM): 88% and 106% and 84.1%
viability, T/C (compound 0.0316 µM): 116% and 109% and 93.2%
viability, T/C (compound 0.1 µM): 116% and 108% and 112%
viability, T/C (compound 0.316 µM): 99.9% and 99.1% and 127%
viability, T/C (compound 1 µM): 97.2% and 98.6% and 123%

IC50 (curve of first compound, second compound 0.03 µM): > 3 µM
IC50 (curve of first compound, second compound 0.0949 µM): > 3 µM
IC50 (curve of first compound, second compound 0.3 µM): 0.289 µM
IC50 (curve of first compound, second compound 0.949 µM): < 0.00949 µM
IC50 (curve of first compound, second compound 3 µM): < 0.00949 µM
Structure (SMILES): Cc1nc(N2CCC3(CC2)COC(C)C3N)c(CO)nc1Sc1ccnc(N)c1Cl (stereo not drawn) + CCN1C(C(=O)NC23CCC(C(=O)O)(CC2)CC3)C(c2cccc(Cl)c2F)C2(C(=O)Nc3cc(Cl)ccc32)C12CCCCC2
viability, T/C (second compound 0.03 µM, first compound 0.00949 µM): 122%
viability, T/C (second compound 0.03 µM, first compound 0.03 µM): 127%
viability, T/C (second compound 0.03 µM, first compound 0.0949 µM): 105%
viability, T/C (second compound 0.03 µM, first compound 0.3 µM): 113%
viability, T/C (second compound 0.03 µM, first compound 0.949 µM): 90.9%
viability, T/C (second compound 0.03 µM, first compound 3 µM): 90.7%
viability, T/C (second compound 0.0949 µM, first compound 0.00949 µM): 95.1%
viability, T/C (second compound 0.0949 µM, first compound 0.03 µM): 89.2%
viability, T/C (second compound 0.0949 µM, first compound 0.0949 µM): 84.5%
viability, T/C (second compound 0.0949 µM, first compound 0.3 µM): 84.5%
viability, T/C (second compound 0.0949 µM, first compound 0.949 µM): 71.9%
viability, T/C (second compound 0.0949 µM, first compound 3 µM): 57.8%
viability, T/C (second compound 0.3 µM, first compound 0.00949 µM): 63.2%
viability, T/C (second compound 0.3 µM, first compound 0.03 µM): 67.2%
viability, T/C (second compound 0.3 µM, first compound 0.0949 µM): 57.3%
viability, T/C (second compound 0.3 µM, first compound 0.3 µM): 48.6%
viability, T/C (second compound 0.3 µM, first compound 0.949 µM): 39.6%
viability, T/C (second compound 0.3 µM, first compound 3 µM): 28.3%
viability, T/C (second compound 0.949 µM, first compound 0.00949 µM): 45.9%
viability, T/C (second compound 0.949 µM, first compound 0.03 µM): 43.6%
viability, T/C (second compound 0.949 µM, first compound 0.0949 µM): 40.8%
viability, T/C (second compound 0.949 µM, first compound 0.3 µM): 33.1%
viability, T/C (second compound 0.949 µM, first compound 0.949 µM): 26.1%
viability, T/C (second compound 0.949 µM, first compound 3 µM): 19.1%
viability, T/C (second compound 3 µM, first compound 0.00949 µM): 26.8%
viability, T/C (second compound 3 µM, first compound 0.03 µM): 27.6%
viability, T/C (second compound 3 µM, first compound 0.0949 µM): 22.1%
viability, T/C (second compound 3 µM, first compound 0.3 µM): 19.4%
viability, T/C (second compound 3 µM, first compound 0.949 µM): 11.4%
viability, T/C (second compound 3 µM, first compound 3 µM): 9.13%
